Reference: ChEMBL document CHEMBL5303765, “Data for DCP probe BAY-7081” (2023)

Tests used:
[1] = biological target: Delta-type opioid receptor (Homo sapiens) (UniProt P41143); details: Compound concentration 10.0 uM
[2] = biological target: BMP-2-inducible protein kinase (Homo sapiens) (UniProt Q9NSY1); assay: BMP2K SGC Tm panel (DSF); details: for ΔTm: Compound concentration 10.0 uM
[3] = biological target: T1, Aurora kinase A (Homo sapiens) (UniProt O14965); assay: STK6 SGC Tm panel (DSF); details: for ΔTm: Compound concentration 10.0 uM
T1 sequence (whole entry): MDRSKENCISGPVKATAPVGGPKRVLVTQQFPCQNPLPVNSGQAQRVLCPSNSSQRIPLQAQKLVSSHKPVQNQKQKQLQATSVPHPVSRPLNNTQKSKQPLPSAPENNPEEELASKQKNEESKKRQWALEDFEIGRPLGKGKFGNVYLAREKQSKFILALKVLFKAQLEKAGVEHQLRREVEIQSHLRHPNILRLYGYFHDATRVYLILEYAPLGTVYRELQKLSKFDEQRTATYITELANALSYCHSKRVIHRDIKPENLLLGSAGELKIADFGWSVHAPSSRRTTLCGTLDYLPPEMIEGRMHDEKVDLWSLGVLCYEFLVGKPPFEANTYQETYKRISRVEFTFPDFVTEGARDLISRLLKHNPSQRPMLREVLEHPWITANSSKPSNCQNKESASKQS

[4] = biological target: T2, Serine/threonine-protein kinase haspin (Homo sapiens) (UniProt Q8TF76); assay: GSG2 SGC Tm panel (DSF); details: for ΔTm: Compound concentration 10.0 uM
T2 sequence (whole entry): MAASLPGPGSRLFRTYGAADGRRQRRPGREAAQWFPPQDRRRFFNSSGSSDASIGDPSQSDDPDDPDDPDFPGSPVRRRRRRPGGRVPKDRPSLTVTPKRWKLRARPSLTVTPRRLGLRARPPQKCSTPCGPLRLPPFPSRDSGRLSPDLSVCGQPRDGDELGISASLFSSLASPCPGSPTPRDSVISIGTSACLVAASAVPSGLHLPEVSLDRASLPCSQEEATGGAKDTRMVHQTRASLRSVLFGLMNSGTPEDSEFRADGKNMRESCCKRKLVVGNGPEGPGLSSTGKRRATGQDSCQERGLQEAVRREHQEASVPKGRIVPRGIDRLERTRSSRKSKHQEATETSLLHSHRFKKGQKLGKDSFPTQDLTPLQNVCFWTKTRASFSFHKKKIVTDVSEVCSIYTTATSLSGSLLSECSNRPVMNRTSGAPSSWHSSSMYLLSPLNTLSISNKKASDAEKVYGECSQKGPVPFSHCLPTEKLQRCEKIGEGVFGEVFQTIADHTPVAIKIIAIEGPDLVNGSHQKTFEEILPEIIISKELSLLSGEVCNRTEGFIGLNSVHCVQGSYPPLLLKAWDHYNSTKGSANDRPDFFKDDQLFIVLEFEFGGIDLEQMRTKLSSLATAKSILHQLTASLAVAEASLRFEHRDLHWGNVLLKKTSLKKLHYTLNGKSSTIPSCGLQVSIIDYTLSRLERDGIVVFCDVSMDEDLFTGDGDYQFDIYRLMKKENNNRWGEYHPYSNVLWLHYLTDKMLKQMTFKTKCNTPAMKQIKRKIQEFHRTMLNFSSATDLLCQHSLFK

[5] = biological target: MAP/microtubule affinity-regulating kinase 3 (Homo sapiens) (UniProt P27448); assay: MARK3 SGC Tm panel (DSF); details: for ΔTm: Compound concentration 10.0 uM
[6] = biological target: Mitogen-activated protein kinase 10 (Homo sapiens) (UniProt P53779); assay: MAPK10 SGC Tm panel (DSF); details: for ΔTm: Compound concentration 10.0 uM
[7] = biological target: T3, Ephrin type-B receptor 3 (Homo sapiens) (UniProt P54753); assay: EPHB3 SGC Tm panel (DSF); details: for ΔTm: Compound concentration 10.0 uM
T3 sequence (whole entry): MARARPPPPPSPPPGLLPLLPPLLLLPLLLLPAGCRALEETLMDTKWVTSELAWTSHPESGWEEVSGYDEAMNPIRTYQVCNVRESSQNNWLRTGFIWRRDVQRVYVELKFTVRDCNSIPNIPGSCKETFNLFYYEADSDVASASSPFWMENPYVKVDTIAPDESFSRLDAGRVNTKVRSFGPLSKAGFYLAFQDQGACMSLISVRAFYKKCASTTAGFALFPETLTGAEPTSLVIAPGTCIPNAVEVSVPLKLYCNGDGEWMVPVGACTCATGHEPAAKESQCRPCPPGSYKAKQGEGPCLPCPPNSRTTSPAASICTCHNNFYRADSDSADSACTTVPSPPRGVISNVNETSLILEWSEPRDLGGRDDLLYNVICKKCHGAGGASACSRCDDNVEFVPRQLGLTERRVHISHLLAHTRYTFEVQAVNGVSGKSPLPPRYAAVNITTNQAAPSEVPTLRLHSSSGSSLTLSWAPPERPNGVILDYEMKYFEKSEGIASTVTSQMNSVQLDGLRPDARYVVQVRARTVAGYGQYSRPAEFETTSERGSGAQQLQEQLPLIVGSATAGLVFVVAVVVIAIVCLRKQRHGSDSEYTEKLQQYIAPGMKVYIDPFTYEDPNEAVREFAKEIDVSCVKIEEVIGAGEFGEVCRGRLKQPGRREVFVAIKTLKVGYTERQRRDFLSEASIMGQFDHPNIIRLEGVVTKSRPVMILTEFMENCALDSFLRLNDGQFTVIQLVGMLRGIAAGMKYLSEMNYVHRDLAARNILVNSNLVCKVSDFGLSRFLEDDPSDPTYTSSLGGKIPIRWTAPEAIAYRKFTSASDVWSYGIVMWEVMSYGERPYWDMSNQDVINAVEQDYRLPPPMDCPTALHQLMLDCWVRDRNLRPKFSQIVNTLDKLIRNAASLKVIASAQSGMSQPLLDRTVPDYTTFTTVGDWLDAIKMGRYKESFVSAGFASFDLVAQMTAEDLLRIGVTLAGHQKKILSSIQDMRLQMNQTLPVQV

[8] = biological target: Beta-3 adrenergic receptor (Homo sapiens) (UniProt P13945); details: Compound concentration 10.0 uM
Chain of Beta-3 adrenergic receptor (Homo sapiens) (P13945 whole entry, looked up): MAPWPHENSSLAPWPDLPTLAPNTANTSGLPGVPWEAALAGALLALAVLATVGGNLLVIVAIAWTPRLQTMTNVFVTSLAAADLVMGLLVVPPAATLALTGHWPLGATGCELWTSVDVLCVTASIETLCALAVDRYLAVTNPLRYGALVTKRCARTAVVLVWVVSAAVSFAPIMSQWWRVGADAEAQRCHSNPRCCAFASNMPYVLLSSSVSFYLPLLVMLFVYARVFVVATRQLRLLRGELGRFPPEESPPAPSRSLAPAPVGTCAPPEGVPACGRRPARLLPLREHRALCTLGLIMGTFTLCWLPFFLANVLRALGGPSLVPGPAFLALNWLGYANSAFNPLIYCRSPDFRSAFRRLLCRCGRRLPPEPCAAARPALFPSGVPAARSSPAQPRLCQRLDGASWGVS

Chain of BMP-2-inducible protein kinase (Homo sapiens) (Q9NSY1 whole entry, looked up): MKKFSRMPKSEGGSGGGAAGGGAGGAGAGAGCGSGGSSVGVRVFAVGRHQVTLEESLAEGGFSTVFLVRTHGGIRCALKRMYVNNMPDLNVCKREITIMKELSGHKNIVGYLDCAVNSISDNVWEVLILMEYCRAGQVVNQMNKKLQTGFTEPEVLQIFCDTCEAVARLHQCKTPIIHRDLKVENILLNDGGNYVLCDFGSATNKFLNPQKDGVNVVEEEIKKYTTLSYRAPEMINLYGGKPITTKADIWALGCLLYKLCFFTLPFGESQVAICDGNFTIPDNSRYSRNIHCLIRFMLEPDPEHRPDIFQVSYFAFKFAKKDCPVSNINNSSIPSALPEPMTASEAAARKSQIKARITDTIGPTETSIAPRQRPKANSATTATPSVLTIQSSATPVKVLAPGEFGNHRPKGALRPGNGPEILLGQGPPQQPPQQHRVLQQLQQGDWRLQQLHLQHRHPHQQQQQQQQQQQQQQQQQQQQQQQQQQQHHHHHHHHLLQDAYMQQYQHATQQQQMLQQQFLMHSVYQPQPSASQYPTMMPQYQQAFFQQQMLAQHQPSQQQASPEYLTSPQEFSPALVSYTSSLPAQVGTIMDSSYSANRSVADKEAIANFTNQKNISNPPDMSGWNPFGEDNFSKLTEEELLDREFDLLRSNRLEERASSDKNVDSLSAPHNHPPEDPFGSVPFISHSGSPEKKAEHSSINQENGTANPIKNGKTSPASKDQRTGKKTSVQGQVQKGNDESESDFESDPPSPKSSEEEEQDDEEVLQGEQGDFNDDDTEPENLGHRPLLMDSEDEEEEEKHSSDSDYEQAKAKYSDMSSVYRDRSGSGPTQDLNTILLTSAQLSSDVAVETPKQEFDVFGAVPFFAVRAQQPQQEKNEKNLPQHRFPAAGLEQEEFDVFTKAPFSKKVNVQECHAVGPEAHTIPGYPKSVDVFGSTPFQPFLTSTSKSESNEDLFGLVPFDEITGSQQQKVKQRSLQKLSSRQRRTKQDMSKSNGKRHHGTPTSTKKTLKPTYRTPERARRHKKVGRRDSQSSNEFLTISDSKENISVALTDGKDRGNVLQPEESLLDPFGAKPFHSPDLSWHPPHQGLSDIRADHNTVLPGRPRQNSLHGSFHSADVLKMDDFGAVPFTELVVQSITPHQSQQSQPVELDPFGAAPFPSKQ
Chain of Mitogen-activated protein kinase 10 (Homo sapiens) (P53779 whole entry): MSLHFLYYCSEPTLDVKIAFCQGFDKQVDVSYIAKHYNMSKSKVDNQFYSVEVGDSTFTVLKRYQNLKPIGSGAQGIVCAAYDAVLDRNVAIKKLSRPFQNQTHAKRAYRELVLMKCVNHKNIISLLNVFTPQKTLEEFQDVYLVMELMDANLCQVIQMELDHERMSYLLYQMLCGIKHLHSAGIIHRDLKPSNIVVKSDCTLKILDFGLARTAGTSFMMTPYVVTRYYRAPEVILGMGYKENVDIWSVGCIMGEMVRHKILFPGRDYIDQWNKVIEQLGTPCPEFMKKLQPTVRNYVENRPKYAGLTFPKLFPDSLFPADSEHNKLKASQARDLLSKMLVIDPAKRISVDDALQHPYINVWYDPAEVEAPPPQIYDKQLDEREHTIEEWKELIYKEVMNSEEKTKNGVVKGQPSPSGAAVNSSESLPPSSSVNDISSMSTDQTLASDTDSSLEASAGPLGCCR
Chain of MAP/microtubule affinity-regulating kinase 3 (Homo sapiens) (P27448 whole entry, looked up): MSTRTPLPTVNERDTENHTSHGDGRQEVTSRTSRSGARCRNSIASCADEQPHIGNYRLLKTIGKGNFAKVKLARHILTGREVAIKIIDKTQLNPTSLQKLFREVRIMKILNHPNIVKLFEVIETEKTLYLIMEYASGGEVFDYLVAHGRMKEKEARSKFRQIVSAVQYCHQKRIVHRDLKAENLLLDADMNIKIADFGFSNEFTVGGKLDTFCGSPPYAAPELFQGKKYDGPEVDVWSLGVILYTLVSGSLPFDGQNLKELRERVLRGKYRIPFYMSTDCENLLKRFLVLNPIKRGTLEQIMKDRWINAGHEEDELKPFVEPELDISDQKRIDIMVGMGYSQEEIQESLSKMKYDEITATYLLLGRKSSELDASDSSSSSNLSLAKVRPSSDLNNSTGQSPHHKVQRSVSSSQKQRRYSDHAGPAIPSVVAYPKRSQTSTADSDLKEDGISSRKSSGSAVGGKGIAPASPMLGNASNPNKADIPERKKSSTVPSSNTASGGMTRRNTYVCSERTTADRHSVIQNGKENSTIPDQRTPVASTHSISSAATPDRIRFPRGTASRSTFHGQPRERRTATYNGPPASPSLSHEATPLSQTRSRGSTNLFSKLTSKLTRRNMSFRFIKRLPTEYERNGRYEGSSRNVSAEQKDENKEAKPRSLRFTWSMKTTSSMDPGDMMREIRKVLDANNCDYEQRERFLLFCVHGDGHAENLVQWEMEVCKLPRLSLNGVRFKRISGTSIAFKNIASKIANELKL
Chain of Delta-type opioid receptor (Homo sapiens) (P41143 whole entry): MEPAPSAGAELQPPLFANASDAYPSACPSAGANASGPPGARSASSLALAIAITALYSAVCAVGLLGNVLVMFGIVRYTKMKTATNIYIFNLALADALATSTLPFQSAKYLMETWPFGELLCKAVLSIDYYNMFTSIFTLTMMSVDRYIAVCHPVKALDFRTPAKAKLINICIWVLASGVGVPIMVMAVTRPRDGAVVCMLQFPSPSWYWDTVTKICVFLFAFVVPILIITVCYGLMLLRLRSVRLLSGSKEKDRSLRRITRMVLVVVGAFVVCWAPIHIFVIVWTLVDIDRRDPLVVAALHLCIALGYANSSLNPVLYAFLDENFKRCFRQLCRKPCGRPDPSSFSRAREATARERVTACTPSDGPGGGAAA

SMILES | inhibition [1] [%] | delta Tm Staurosporine positive control [2] | ΔTm [2] | delta Tm Staurosporine positive control [3] | ΔTm [3] | delta Tm Staurosporine positive control [4] | ΔTm [4] | delta Tm Staurosporine positive control [5] | ΔTm [5] | delta Tm Staurosporine positive control [6] | ΔTm [6] | delta Tm Staurosporine positive control [7] | ΔTm [7] | inhibition [8] [%]
CCC[C@H]1CNCc2c1[nH]c(=O)c(C#N)c2N1CCC2(CC1)CC2 | -9.99 | 18.7 | -0.103 | 20.5 | 0.00646 | 8.53 | -0.0501 | 17.5 | -0.331 | 6.75 | -0.509 | 7.02 | -2.51 | 3.76
CCC[C@@H]1CNCc2c1[nH]c(=O)c(C#N)c2N1CCC2(CC1)CC2 | 3.91 | 18.7 | -0.192 | 20.5 | -0.0175 | 8.53 | -0.64 | 17.5 | -0.214 | 6.75 | -0.405 | 7.02 | -2.16 | -3.17
